Source: patent US7893068B2, “Physiologically active substances” (Mercian Corporation, priority 2002, dated 2011)

Key:
P388 mouse leukemia cell [1] = conditions: P388, RPM-1640 medium; cited from earlier work
[2] = tested on: L-1210 mouse leukemia cell; conditions: L-1210, RPM-1640 medium; cited from earlier work
[3] = tested on: HL-60 human leukemia cell; conditions: HL-60, RPM-1640 medium; cited from earlier work
P388 mouse leukemia cell [4] = conditions: cited from earlier work
[5] = Stability in an aqueous solution (HPLC residual ratio)
Description: The compounds of the formula (I) were dissolved in DMSO in concentrations of 10 to 20 mM, and these were diluted about 500 folds with Britton-Robinson's buffer solution of pH 7. Each of the solutions as sample solutions was incubated at 25° C. for 24 hours.
The sample solutions were analyzed by high performance liquid chromatography before and after incubation, and the residual ratios of the tested substances in the sample solutions after incubation were determined from the peak areas of the obtained chromatograms.

[6] = Britton-Robinson's buffer pH 7, 25° C., 24 hours

## CCC(OC)C(C)C1OC1C(O)C(C)/C=C/C=C(\C)C1OC(=O)CC(O)CCC(C)(O)C(OC(C)=O)/C=C/C1C (centres unmarked) [FD895, reference compound]
P388 mouse leukemia cell [1]
  in vitro cell growth inhibitory activities: has in vitro cell growth inhibitory activities
[2]
  in vitro cell growth inhibitory activities: has in vitro cell growth inhibitory activities
[3]
  in vitro cell growth inhibitory activities: has in vitro cell growth inhibitory activities
P388 mouse leukemia cell [4]
  antitumor activities in an in vivo experiment: did not show antitumor activities
[5]; [6]
  Peak area (mAU × sec) after 24 hours: 993 mAU × sec
  The residual ratios (%): 83%
[5]; Britton-Robinson's buffer pH 7, before incubation
  Peak area (mAU × sec) initial: 1197 mAU × sec
[5]; aqueous solution
  Stability in an aqueous solution: unstable in an aqueous solution
